The source of these data is the Deep4Chem optical property database.

SMILES strings stand for the structures. Several values for one entry are separate records, joined by “and”; a condition that tells them apart may be missing. Equal values may be shown once.

The nature of the data set: solvent given as SMILES.

On to `Cc1ccc(C2=C3C=c4c(oc5ccccc45)=[N+]3[B-](F)(F)n3c2cc2c4ccccc4oc23)cc1`, for which the absorption maximum by setting is: (in C1CCCCC1) 584.5 nm; (in C1CCOC1) 581.5 nm; (in CC#N) 578 nm; (in CCOC(C)=O) 579.5 nm; (in CN(C)C=O) 581.5 nm; (in CO) 578 nm. Moreover, the absorption maximum reads like this: (in Cc1ccccc1) 588 nm; (in ClCCl) 584 nm and 583 nm.

In turn, `c1cc2c3c(c1)-c1cccc4cccc(c14)B3c1cccc3cccc-2c13` showed an absorption maximum (in Cc1ccccc1) of 466 nm.

For `CCC1(CC)c2ccccc2-c2c1c1c(c3c2C(CC)(CC)c2cc(B(c4c(C)cc(C)cc4C)c4c(C)cc(C)cc4C)ccc2-3)C(CC)(CC)c2cc(B(c3c(C)cc(C)cc3C)c3c(C)cc(C)cc3C)ccc2-1`, the absorption maximum came out at 364 nm (in C1CCOC1); 359 nm (in CC#N); 360 nm (in CC(C)=O); 362 nm (in CCCCCC); 362 nm (in ClC(Cl)Cl).

Where the note is “in ClCCl”, `O=c1c2cccc3cccc(c32)c2nc3c4ccccc4c4ccccc4c3n12` yielded an absorption maximum of 436 nm.

For the molecule `C1=C(c2ccccc2)S[C@]23C1=C(c1ccccc1)[C@H](c1ccccc12)c1ccccc13`, the absorption maximum (in ClCCl) was determined as 378 nm.

`Nc1cccc2cc3ccccc3cc12` yielded an absorption maximum (in C1CCCCC1) of 384.17 nm.

In the case of `COc1ccc(-c2cc(-c3ccc(C)cc3)nc3c(C#N)c(N4CCCC4)nc(N)c23)cc1`, the absorption maximum by setting is: (in CC#N) 418 nm; (in CC(C)=O) 420 nm; (in CC(C)O) 414 nm; (in CO) 414 nm; (in ClC(Cl)Cl) 418 nm; (in ClCCl) 422 nm. The same molecule returned an absorption maximum (in c1ccccc1) of 424 nm.

`COc1ccc2c3c(c4ccc(OC)cc4c2c1)C(C)(C)c1ccccc1-3` came in with an absorption maximum (in C1CCCCC1) of 388 nm.

As for `c1ccc(-n2c3ccccc3c3cc([Si](c4ccccc4)(c4ccccc4)c4ccc5c(c4)c4ccccc4n5-c4ccccc4)ccc32)cc1`, under “in ClCCl”, the absorption maximum was determined as 342 nm.

Regarding `Cc1cc(C#Cc2ccccc2)c2ccc3c(C#Cc4ccccc4)cc(C#Cc4ccccc4)c4ccc1c2c43`, the absorption maximum (in CS(C)=O) stood at 451 nm and the absorption maximum (in ClC(Cl)(Cl)Cl) stood at 445 nm.

For the setting “in Cc1ccccc1”, `CC1(C)c2ccccc2N(c2ccc3c(c2)C2(c4cc(N5c6ccccc6C(C)(C)c6ccccc65)ccc4-3)c3ccccc3S(=O)(=O)c3ccccc32)c2ccccc21` returned an absorption maximum of 364 nm.

For the molecule `CC(C)(C)c1ccc(C2=C(c3ccc(C(C)(C)C)cc3)[Si](c3ccccc3)(c3ccccc3)c3ccccc32)cc1`, the absorption maximum (in C1CCOC1) is 341 nm.

As for `Nc1cc[nH]c(=S)n1`, the absorption maximum was 283 nm (in CC#N); 280 nm (in CCO); 286 nm (in CCOC(C)=O); 278 nm (in CO); 285 nm (in CS(C)=O); 269 nm (in O).

On to `Clc1ccccc1N1c2c(sc3ccccc23)Sc2sc3ccccc3c21`, for which, for the setting “in ClCCl”, the absorption maximum was 400 nm.

`C#Cn1c(-c2cc(-c3nc4ccccc4n3C#C)cc(-c3nc4ccccc4n3C#C)c2)nc2ccccc21`: the absorption maximum (in ClCCl) is given as 305.5 nm.

Take `Cc1cccc(Nc2ccccc2C(=O)O)c1C`: the absorption maximum reads like this: (in CC#N) 351 nm; (in CCOC(C)=O) 351 nm; (in CO) 345 nm; (in ClC(Cl)Cl) 357 nm.

Molecule `c1ccc(C2CCN3COc4c5ccccc5c5c6c7c(c2c3c46)C(c2ccccc2)CCN7CO5)cc1` (stereo not given) yielded an absorption maximum (in C1CCCCC1) of 403 nm; an absorption maximum (in C1CCOC1) of 405 nm; an absorption maximum (in C1COCCO1) of 405 nm; an absorption maximum (in CC#N) of 405 nm; an absorption maximum (in CC(C)=O) of 406 nm; an absorption maximum (in CCOC(C)=O) of 404 nm. For the same molecule, the absorption maximum (in CCOCC) was determined as 404 nm; the absorption maximum (in CN(C)C=O) was 407 nm; the absorption maximum (in CO) is on record as 402 nm; the absorption maximum (in CS(C)=O) was 408 nm; the absorption maximum (in Cc1ccccc1) is 406 nm; the absorption maximum (in ClC(Cl)Cl) is reported as 404 nm. This molecule also displayed an absorption maximum (in ClCCl) of 405 nm.

Regarding `CC1(C)CC(=O)C2=C(C1)Oc1ccc3cc(O)ccc3c1C2c1ccccn1` (stereo not given), the absorption maximum by setting is: (in C1CCOC1) 349 nm; (in C1COCCO1) 347 nm; (in CC#N) 349 nm; (in CCCCCCC) 347 nm; (in CCO) 349 nm; (in CO) 349 nm. This molecule also came in with an absorption maximum (in O) of 347 nm.

`CCn1c2ccccc2c2cc(/C=C(\C#N)c3ccccc3)ccc21` returned an absorption maximum (in ClCCl) of 374 nm.

As to `COc1cccc(/C=C/c2ccccc2)c1`, the absorption maximum (in CC#N) is on record as 295 nm.

In the case of `Cc1ccc(-c2nc(-c3cccc(O)c3)[nH]c2-c2ccc(C)cc2)cc1`, the absorption maximum (in CO) is reported as 300 nm.

In turn, `Cc1cc(C)c(B(c2cc(-c3ccc(C(F)(F)F)cc3)sc2-c2sc(-c3ccc(C(F)(F)F)cc3)cc2P(=O)(c2ccccc2)c2ccccc2)c2c(C)cc(C)cc2C)c(C)c1` registered an absorption maximum (in CO) of 389 nm.

In turn, `O=C1/C(=C\c2ccc(N(c3ccccc3)c3ccccc3)cc2)S(=O)(=O)c2ccccc21` registered an absorption maximum (in C1CCOC1) of 473 nm; an absorption maximum (in C1COCCO1) of 475 nm; an absorption maximum (in CC#N) of 475 nm; an absorption maximum (in CC(C)=O) of 472 nm; an absorption maximum (in CCOC(C)=O) of 471 nm; an absorption maximum (in CN(C)C=O) of 478 nm. The absorption maximum reads like this: (in CO) 477 nm; (in CS(C)=O) 482 nm; (in Cc1ccccc1) 485 nm; (in ClC(Cl)Cl) 491 nm; (in ClCCl) 485 nm.

`CC(C)(C)c1ccc2c(c1)c1cc(C(C)(C)C)ccc1n2-c1ccc(C(=C(C#N)C#N)c2ccc(-n3c4ccc(C(C)(C)C)cc4c4cc(C(C)(C)C)ccc43)cc2)cc1` gave an absorption maximum (in Cc1ccccc1) of 438 nm.

For the setting “in Cc1ccccc1”, `N#Cc1c(-n2c3ccccc3c3cc(Br)ccc32)c(C#N)c(-n2c3ccccc3c3cc(Br)ccc32)c(-n2c3ccccc3c3cc(Br)ccc32)c1-n1c2ccccc2c2cc(Br)ccc21` registered an absorption maximum of 381 nm.

`Cc1cc(C)c2nc3c(=O)n(C)c(=O)nc-3n(C)c2c1` yielded an absorption maximum (in CC#N) of 446 nm.

With `Cc1ccc(O)c(-c2[nH]c(=O)n3c2-c2ccccc2C3=O)c1`, the absorption maximum by setting is: (in CC#N) 394 nm; (in CO) 399 nm; (in ClCCl) 393 nm.

Under “in CN(C)C=O”, `Cc1ccc2nc(-c3cccc4nc(C)[nH]c(=O)c34)[nH]c2c1` registered an absorption maximum of 322 nm.

With `CC(C)(C)c1ccc(N2c3ccc(C(C)(C)C)cc3B3c4cc(C(C)(C)C)ccc4N(c4ccc(C(C)(C)C)cc4)c4cc(-n5c6ccc(C(C)(C)C)cc6c6cc(C(C)(C)C)ccc65)cc2c43)cc1`, the absorption maximum (in Cc1ccccc1) is listed as 451 nm.

For the molecule `Cc1sc(-c2ccc(-c3nc(-c4ccccc4)c(-c4ccccc4)[nH]3)cc2)c(C)c1C1=C(c2c(C)n(C)c3ccccc23)C(F)(F)C(F)(F)C1(F)F`, where the note is “in C1CCOC1”, the absorption maximum is reported as 313 nm.

Turning to `CC1=N/C(=C\c2cccc(N(C)C)c2)C(=O)N1C`, the absorption maximum is 354 nm (in C1CCOC1); 354 nm and 352 nm (in CC#N); 352 nm (in CCCCCC).

As to `C[SiH](C)c1ccc([SiH](C)C)c2ccccc12`, the absorption maximum (in C1CCCCC1) is 300 nm.

For the molecule `CCN1c2ccc(/C=N/Nc3ccccn3)cc2Sc2cc(-c3ccccc3)ccc21`, the absorption maximum is reported as 379 nm (in C1CCOC1), 387 nm (in CS(C)=O), 382 nm (in Cc1ccccc1) and 384 nm (in ClCCl).

For `CCCCCCc1ccc2c3c(ccc2c1)O[B-](c1ccccc1)(c1ccccc1)[N+](c1cc([N+]2=Cc4c(ccc5cc(CCCCCC)ccc45)O[B-]2(c2ccccc2)c2ccccc2)cc([N+]2=Cc4c(ccc5cc(CCCCCC)ccc45)O[B-]2(c2ccccc2)c2ccccc2)c1)=C3`, the absorption maximum (in C1CCOC1) is 445 nm, the absorption maximum (in CC#N) is 440 nm, the absorption maximum (in Cc1ccccc1) is recorded as 453 nm and the absorption maximum (in ClCCl) was 450 nm.

Turning to `CC(NC(=O)OC(C)(C)C)C(=O)OCc1ccc2c3cccc4cccc(c5cccc1c52)c43` (stereo not given), under “in CCO”, the absorption maximum is listed as 437 nm.

The molecule `Cc1cccc2[n+]1[B-](F)(F)n1c(c3cccc4cccc1c43)=N2` showed an absorption maximum (in C1CCOC1) of 472 nm; an absorption maximum (in CC#N) of 465 nm; an absorption maximum (in CCCCCC) of 464 nm; an absorption maximum (in Cc1ccccc1) of 475 nm; an absorption maximum (in ClCCl) of 441 nm.

As to `CCCC1(CCC)c2ccccc2-c2ccc(-c3ccc(OC)cc3)cc21`, under “in C1CCCCC1”, the absorption maximum is 315 nm.

On to `CC[N+]1(CC)CN2C(=N1)C(C(=O)O)=Cc1cc(Oc3ccccc3)ccc12`, for which the absorption maximum (in O) amounted to 387 nm.

Consider `CC1(C)C(/C=C/C=C/c2cc3ccc(O)cc3oc2=O)=[N+](CCCS(=O)(=O)[O-])c2ccccc21`, for which the absorption maximum reads like this: (in CS(C)=O) 491 nm; (in O) 564 nm.

Consider `C(=C\c1nc(/C=C/c2ccc(-n3c4ccccc4c4ccccc43)cc2)nc(/C=C/c2ccc(-n3c4ccccc4c4ccccc43)cc2)n1)/c1ccc(-n2c3ccccc3c3ccccc32)cc1`, for which the absorption maximum (in C1CCOC1) was found to be 381 nm, the absorption maximum (in CC#N) was found to be 376 nm, the absorption maximum (in Cc1ccccc1) was determined as 389 nm and the absorption maximum (in ClCCl) was 383 nm.

As to `O=C1O[B-]2(OC1=O)OC(c1ccc3ccccc3c1)=CC(c1ccc3ccccc3c1)=[O+]2`, the absorption maximum runs as follows: (in CC#N) 435 nm; (in ClC(Cl)(Cl)Cl) 438 nm.

As to `C(=C\c1ccc(/C=C/c2ccc(N(c3ccccc3)c3ccccc3)cc2)c2nsnc12)/c1ccc(N(c2ccccc2)c2ccccc2)cc1`, the absorption maximum was 512 nm (in C1CCOC1); 502 nm (in CCOC(C)=O); 513 nm (in CN(C)C=O); 521 nm (in Cc1ccccc1); 514 nm (in ClC(Cl)Cl); 512 nm (in ClCCl).
